{
  "source": "patent US7531194B2",
  "about": "“Plant extracts for the treatment of rheumatoid arthritis” (Development Center for Biotechnology, priority 2006, dated 2009)",
  "format_in_all_cases": "in vivo, Lewis rats",
  "key": {"Rheumatoid factor (RF)": {"test_system": "Rheumatoid factor (RF)", "assay": "Serum RF analysis of CIA rats fed PA crude extracts (Embodiment 2)", "description": "The animal test scheme is shown as FIG. 2. Bovine collagen Type II (Bovine C II) was dissolved in 0.1 M acetic acid solution, stirred to dissolve thoroughly, and formulated into solutions with concentrations of 1.5 and 3 mg/ml, which were stored in 4° C. for later use. For the first immune injection, 100 μl of C II solution was emulsified with an equal amount of CFA, and injected subcutaneously (200 μl/rat) in the root portions of tails of the rats after the emulsification was complete. […] After about 15 days, the second immunization was done. 100 μl of C II solution was emulsified with an equal amount of IFA, and injected subcutaneously (200 μl/rat) in the root portions of tails of the rats after the emulsification was complete. Approximately from Day 20, the symptoms of arthritis were observed (CIA rats), and PA and indomethacin were fed until Day 45. [table] 1. Collagen was formulated in a coating buffer to a concentration of 40 μg/ml, 0.1 ml of which was added into a 96-well micro plate respectively, and was kept in 4° C. overnight. 2. After washing with Tris buffer three times, 0.2 ml of blocking buffer containing 1% BSA was added into each well. The reaction lasted for 2 hours at room temperature, and then was washed by Tris buffer three times again. 3. […] Finally, absorption (O.D) value was read out at the wavelength of 450 nm."}, "CIA rats": {"test_system": "CIA rats", "assay": "Maximum arthritic index (MAI) of CIA rats fed PA crude extracts (Embodiment 2)", "details": "gavage until Day 45, PA-H 375, PA-L 75, indomethacin 2.5 mg/kg/day, FIG. 4", "description": "The animal test scheme is shown as FIG. 2. Bovine collagen Type II (Bovine C II) was dissolved in 0.1 M acetic acid solution, stirred to dissolve thoroughly, and formulated into solutions with concentrations of 1.5 and 3 mg/ml, which were stored in 4° C. for later use. For the first immune injection, 100 μl of C II solution was emulsified with an equal amount of CFA, and injected subcutaneously (200 μl/rat) in the root portions of tails of the rats after the emulsification was complete. […] After about 15 days, the second immunization was done. 100 μl of C II solution was emulsified with an equal amount of IFA, and injected subcutaneously (200 μl/rat) in the root portions of tails of the rats after the emulsification was complete. Approximately from Day 20, the symptoms of arthritis were observed (CIA rats), and PA and indomethacin were fed until Day 45. [table] 2. Evaluation of RA examination: evaluated in maximum arthritic index (MAI) After immunization, the rats were observed three times a week. The changes of redness and swelling or the like in limbs were recorded, and photographs were taken and filed for comparison. […] Maximum arthritic index, average MAI for each group was calculated as follows: Average MAI=Total of MAI recorded in limbs of each rat (0: no CIA occurs, 16: highest score)/4/total rat number of each group"}, "TNF-α": {"test_system": "TNF-α", "assay": "Abdominal cavity cell (PEC) culture, cytokine TNF-α, CIA rats fed PA crude extracts (Embodiment 2)", "details": "LPS 10 μg/ml, 24 hours, FIG. 8", "description": "The animal test scheme is shown as FIG. 2. Bovine collagen Type II (Bovine C II) was dissolved in 0.1 M acetic acid solution, stirred to dissolve thoroughly, and formulated into solutions with concentrations of 1.5 and 3 mg/ml, which were stored in 4° C. for later use. For the first immune injection, 100 μl of C II solution was emulsified with an equal amount of CFA, and injected subcutaneously (200 μl/rat) in the root portions of tails of the rats after the emulsification was complete. […] After about 15 days, the second immunization was done. 100 μl of C II solution was emulsified with an equal amount of IFA, and injected subcutaneously (200 μl/rat) in the root portions of tails of the rats after the emulsification was complete. Approximately from Day 20, the symptoms of arthritis were observed (CIA rats), and PA and indomethacin were fed until Day 45. [table] 1. After carbon dioxide euthanasia, the outer furs of the rat abdominal cavity were cut out by scissors, to expose the whole abdominal cavity. 2. HBSS buffer was injected into the abdominal cavity batch-wise by a 10 ml syringe to make a total volume of about 20 ml/rat. 3. The abdominal cavity of the rat was opened after the abdomen was gently kneaded. An incision of about 2 cm was made in the abdominal cavity by using scissors. […] The concentrations of cytokine TNF-α, IL-6, and IL-1β were analyzed by using ELISA kit."}},
  "data": [
    {"smiles": "COc1ccc2c(c1)c(CC(=O)O)c(C)n2C(=O)c1ccc(Cl)cc1", "note": "[indomethacin, Indomethacin]", "values": [
      {"measurement": "reduction of serum RF value", "setting": "Rheumatoid factor (RF); Day 35 compared with Day 20, FIG. 6", "result": 47, "unit": "%"},
      {"measurement": "reduction of serum RF value", "setting": "Rheumatoid factor (RF); Day 45 compared with Day 20, FIG. 6", "result": 51, "unit": "%"},
      {"measurement": "effect on the arthritic indices (MAI) of CIA rats", "setting": "CIA rats", "result": "most preferred"},
      {"measurement": "inhibition of PEC secreting TNF-α", "setting": "TNF-α", "result": "no effect of inhibiting PEC from secreting inflammatory cytokine"}
    ]}
  ]
}
